The test system of data set [1] is db/db mice. Set-up: method as in PMID 21482466, PMID 23265886, PMID 25982078. Particulars: cited from earlier work.
In data set [2] the target is T1, PPAR-α (Homo sapiens, UniProt Q07869).
T1 construct: host or cells: CV-1
T1 sequence (Q07869 1-468): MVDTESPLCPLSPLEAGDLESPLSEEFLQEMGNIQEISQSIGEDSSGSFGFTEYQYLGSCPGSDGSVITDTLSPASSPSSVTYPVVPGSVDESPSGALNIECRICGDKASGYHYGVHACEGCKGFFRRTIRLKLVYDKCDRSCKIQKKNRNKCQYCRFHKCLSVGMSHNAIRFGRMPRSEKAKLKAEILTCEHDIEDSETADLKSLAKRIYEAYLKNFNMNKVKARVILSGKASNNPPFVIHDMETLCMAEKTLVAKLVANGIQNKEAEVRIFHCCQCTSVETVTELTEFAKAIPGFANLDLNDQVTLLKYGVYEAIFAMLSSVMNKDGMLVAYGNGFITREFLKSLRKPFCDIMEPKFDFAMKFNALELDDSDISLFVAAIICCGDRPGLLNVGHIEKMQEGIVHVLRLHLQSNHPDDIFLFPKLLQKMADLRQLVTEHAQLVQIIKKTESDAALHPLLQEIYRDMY
The experiment in a line: cell-based PPAR transactivation (luciferase) assay, PPAR-α. Particulars: 24 h; compounds 10 µM; relative to maximum activation with GW7647 (10 µM); PPAR-Luc in CV-1 cells; read-out: % max PPAR-α. As for the experimental part: (§1) The PPAR activities of the synthesized dichloroanilide-linked indole analogs were assessed using a standard cell-based transactivation assay in CV-1 cells. GW7647 [42], pioglitazone, and GW0742 [43] were used as positive controls for PPAR-α, -γ, and -δ, respectively. These three positive controls presented the maximum activation for each PPAR subtype. The activity of the compounds was presented as the activation percentage (%) relative to the maximum values of the positive controls at the indicated concentrations.
(§2) Transient transfection and luciferase assay was carried out. CV-1 cells were seeded in 48-well plates at a density of 1.5 × 10^5 cells/well in Dulbecco’s modified Eagle’s medium (DMEM) with containing 10% fetal bovine serum (FBS). The cells were transiently transfected with plasmid mixtures containing PPAR-α/γ expression vector and tk-PPRE-luciferase (Luc) vector for 6 h and then treated with the samples for 24 h. HEK293t cells were seeded in a 60-mm dish at a density of 1.5 × 10^6 cells/dish. After transfection with the plasmid mixtures containing PPAR-δ expression vector and Luc vector for 6 h, the cells were transferred to a 96-well plate and treated with the samples. To normalize the transfection efficiency, a β-galactosidase plasmid was cotransfected. The luciferase activity in the cell lysates was measured using a luciferase assay system (Promega Corp., Madison, WI, USA), and the β-galactosidase activity was determined by measuring the absorbance at 410 nm using an ELISA plate reader. The data were expressed as the relative luciferase activity divided by the β-galactosidase activity. All constructs were kindly gifted by Dr. Ronald M. Evans at The Salk Institute (La Jolla, CA, USA).

In data set [3] the target is T2, PPAR-γ (Homo sapiens, UniProt P37231).
T2 construct: host or cells: CV-1
T2 sequence (P37231 1-505): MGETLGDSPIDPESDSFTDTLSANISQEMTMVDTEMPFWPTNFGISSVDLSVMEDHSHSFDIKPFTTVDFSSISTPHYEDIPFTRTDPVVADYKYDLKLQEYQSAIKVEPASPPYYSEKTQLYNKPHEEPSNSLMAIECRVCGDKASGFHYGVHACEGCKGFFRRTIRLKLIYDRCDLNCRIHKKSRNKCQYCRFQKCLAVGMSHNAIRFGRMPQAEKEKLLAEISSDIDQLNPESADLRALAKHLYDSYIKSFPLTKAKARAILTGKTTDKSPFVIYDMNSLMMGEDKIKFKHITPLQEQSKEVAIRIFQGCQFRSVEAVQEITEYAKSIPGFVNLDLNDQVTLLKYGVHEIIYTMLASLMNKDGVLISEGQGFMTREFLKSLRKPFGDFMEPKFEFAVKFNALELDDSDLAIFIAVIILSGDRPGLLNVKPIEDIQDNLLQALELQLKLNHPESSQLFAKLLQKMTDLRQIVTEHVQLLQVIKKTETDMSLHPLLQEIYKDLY
The experiment in a line: cell-based PPAR transactivation (luciferase) assay, PPAR-γ. The note with it: for activation at 10 µM: 24 h, compounds 10 µM, relative to maximum activation with pioglitazone (10 µM), PPAR-Luc in CV-1 cells, read-out: % max PPAR-γ; for agonistic activity to PPARs, in words: transactivation assay, all PPAR subtypes. The procedure:
as §1, §2

Data set [4] has as its target T3, PPAR-δ (Homo sapiens, UniProt Q03181).
T3 construct: host or cells: HEK293t
T3 sequence (Q03181 1-441): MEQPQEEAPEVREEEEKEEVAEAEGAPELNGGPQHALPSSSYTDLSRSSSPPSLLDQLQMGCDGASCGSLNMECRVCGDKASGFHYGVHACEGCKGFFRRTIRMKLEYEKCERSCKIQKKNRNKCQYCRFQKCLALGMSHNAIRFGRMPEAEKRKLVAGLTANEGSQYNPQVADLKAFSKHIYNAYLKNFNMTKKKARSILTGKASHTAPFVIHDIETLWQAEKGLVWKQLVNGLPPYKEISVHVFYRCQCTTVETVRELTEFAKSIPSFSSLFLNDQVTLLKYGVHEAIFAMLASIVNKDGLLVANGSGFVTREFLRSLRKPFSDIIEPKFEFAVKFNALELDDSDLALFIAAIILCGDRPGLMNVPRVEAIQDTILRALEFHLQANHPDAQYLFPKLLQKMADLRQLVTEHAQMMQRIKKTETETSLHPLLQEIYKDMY
The experiment in a line: cell-based PPAR transactivation (luciferase) assay, PPAR-δ. The note with it: compounds 10 µM; relative to maximum activation with GW0742 (10 μM); PPAR-Luc in HEK293t cells; read-out: % max PPAR-δ. The procedure: as §1, §2

On to `O=C(O)Cc1cn(Cc2ccccc2)c2ccc(OCCCOc3cccc(OCc4ccc(Cl)cc4)c3)cc12` [Compound 2], for which, in data set [1], the “accumulation of lipids and size of the adipocytes” value is “reduced”; the blood glucose level entry is listed as “lowered”; the “glycated hemoglobin (HbA1c) level” value is recorded as “lowered”; the insulin level result is “lowered”. Also, the weight gain entry in data set [1] is listed as “without causing weight gain”.
As for `O=C(O)Cc1c[nH]c2ccc(OCC(=O)Nc3ccc(Cl)cc3Cl)cc12` [Compound 5, 2-(5-(2-((2,4-Dichlorophenyl)amino)-2-oxoethoxy)-1H-indol-3-yl)acetic acid], the activation at 10 µM was -38.13 ± 0.06% in data set [2], 5.6 ± 0.14% in data set [3] and 11.8 ± 0.35% in data set [4]. Further, the “agonistic activity to PPARs, in words” value in data set [3] is “minimum agonistic activities”.
Taken in the same sequence, the figures for `O=C(O)Cc1c[nH]c2cc(OCC(=O)Nc3ccc(Cl)cc3Cl)ccc12` [Compound 6, 2-(6-(2-((2,4-Dichlorophenyl)amino)-2-oxoethoxy)-1H-indol-3-yl)acetic acid] were 1.12 ± 0.24%, 8.66 ± 0.23%, 8.27 ± 0.33% and “minimum agonistic activities”.
Regarding `O=C(O)Cc1cn(Cc2ccccc2)c2ccc(OCC(=O)Nc3ccc(Cl)cc3Cl)cc12` [Compound 7, 2-(1-Benzyl-5-(2-((2,4-dichlorophenyl)amino)-2-oxoethoxy)-1H-indol-3-yl)acetic acid], the activation at 10 µM turned out to be 21.41 ± 0.21% in data set [2], 31.2 ± 0.38% in data set [3] and 44.4 ± 0.77% in data set [4].
Taken in the same sequence, the figures for `O=C(O)Cc1cn(Cc2ccccc2)c2cc(OCC(=O)Nc3ccc(Cl)cc3Cl)ccc12` [Compound 8, 2-(1-Benzyl-6-(2-((2,4-dichlorophenyl)amino)-2-oxoethoxy)-1H-indol-3-yl)acetic acid] were 31.68 ± 0.22%, 71.9 ± 0.91% and 65.4 ± 0.7%.
Taken in the same sequence, the figures for `O=C(COc1ccc2c(ccn2Cc2cccc(C(=O)O)c2)c1)Nc1ccc(Cl)cc1Cl` [Compound 14, 3-((5-(2-((2,4-Dichlorophenyl)amino)-2-oxoethoxy)-1H-indol-1-yl)methyl)benzoic acid] were 10.33 ± 0.07%, 42 ± 0.52% and 23.9 ± 0.51%.
In the case of `O=C(COc1ccc2c(ccn2Cc2ccc(C(=O)O)cc2)c1)Nc1ccc(Cl)cc1Cl` [Compound 16, 4-((5-(2-((2,4-Dichlorophenyl)amino)-2-oxoethoxy)-1H-indol-1-yl)methyl)benzoic acid], the values for the activation at 10 µM in data set [2], in data set [3] and in data set [4] were -19.98 ± 0.08%, 0.29 ± 0.06% and -1.07 ± 0.14%, respectively.
Take `O=C(COc1ccc2ccn(Cc3ccc(C(=O)O)cc3)c2c1)Nc1ccc(Cl)cc1Cl` [Compound 17, 4-((6-(2-((2,4-Dichlorophenyl)amino)-2-oxoethoxy)-1H-indol-1-yl)methyl)benzoic acid]: the figures for the activation at 10 µM in data set [2], in data set [3] and in data set [4] were -14.4 ± 0.16%, -0.84 ± 0.16% and 4.87 ± 0.24%, respectively.
The corresponding values for `O=C(COc1ccc2c(Cc3ccccc3)cn(Cc3ccccc3C(=O)O)c2c1)Nc1ccc(Cl)cc1Cl` [Compound 19, 2-((3-Benzyl-6-(2-((2,4-dichlorophenyl)amino)-2-oxoethoxy)-1H-indol-1-yl)methyl)benzoic acid] are 7.25 ± 0.12%, 19.03 ± 0.13% and 19.4 ± 0.54%.
`CC(C)=CCc1cn(Cc2ccccc2C(=O)O)c2ccc(OCC(=O)Nc3ccc(Cl)cc3Cl)cc12` [Compound 20, 2-((5-(2-((2,4-Dichlorophenyl)amino)-2-oxoethoxy)-3-(3-methylbut-2-en-1-yl)-1H-indol-1-yl)methyl)benzoic acid]: the activation at 10 µM in data set [2] is -5.93 ± 0.14%; in data set [3] it was 5.1 ± 0.2%; in data set [4], 8.92 ± 0.48%.
In the case of `CC(C)=CCc1cn(Cc2ccccc2C(=O)O)c2cc(OCC(=O)Nc3ccc(Cl)cc3Cl)ccc12` [Compound 21, 2-((6-(2-((2,4-Dichlorophenyl)amino)-2-oxoethoxy)-3-(3-methylbut-2-en-1-yl)-1H-indol-1-yl)methyl)benzoic acid], the values for the activation at 10 µM in data set [2], in data set [3] and in data set [4] were -2.3 ± 0.19%, 9.55 ± 0.32% and 22.2 ± 0.59%, respectively.
